Key:
mouse CIA model = assay: Collagen induced arthritis (CIA) model; format: in vivo; set-up: key: per paw 0 = none to 4 = maximal; sum of 4 paws, max 16
Description: Completed Freund's adjuvant (CFA) and incomplete Freund's adjuvant (IFA) were purchased from Difco. Bovine collagen type II (CII), lipopolysaccharide (LPS), and Enbrel® (etanercept) were obtained from Chondrex (L'Isle d'Abeau, France); Sigma (P4252, L'Isle d'Abeau, France), Whyet (25 mg injectable syringe, France), respectively. All other reagents used were of reagent grade and all solvents were of analytical grade.
DBA1/J mice (male, 7-8 weeks old) were obtained from Charles River Laboratories (Écully, France). Mice were kept on a 12 h light/dark cycle. Temperature was maintained at 22° C., and food and water were provided ad libitum.
One day before the experiment, CII solution (2 mg/mL) was prepared with 0.05 M acetic acid and stored at 4° C. Just before the immunization, equal volumes of adjuvant […] and CII were mixed by a homogenizer in a pre-cooled glass bottle in an ice water bath. Extra adjuvant and prolonged homogenization may be required if an emulsion is not formed. 0.2 mL of the emulsion was injected intradermally at the base of the tail of each mouse on day 1, a second booster intradermal injection (CII solution at 2 mg/mL in […]) was performed on […]. This immunization method was modified from published methods (Jou et al. 2005; Sims et al. 2004).
The therapeutic effects of the compounds were tested in the mouse CIA model. Mice were randomly divided into equal groups and each group contained 10 mice. All mice were immunized on day 1 and boosted on day 21. The negative control group was treated with vehicle (MC 0.5%) and the positive control group with Enbrel® (10 mg/kg, 3× week., sc). A compound of interest was typically tested at 3 doses per os (p.o.). At day 32, randomization between groups was performed with respect with clinical score and animals were therapeutically treated regarding their group until day 47. Body weight and clinical score, were recorded at least twice a week.
Arthritis is scored according to the method of Khachigian 2006, Lin et al 2007 and Nishida et al. 2004 (Khachigian 2006; Lin et al. 2007; Nishida et al. 2004). The swelling of each of the four paws is ranked with the arthritic score as follows: 0-no symptoms; 1-mild, but definite redness and swelling of one type of joint such as the ankle or wrist, or apparent redness and swelling limited to individual digits, regardless of the number of affected digits; 2-moderate redness and swelling of two or more types of joints; 3-severe redness and swelling of the entire paw including digits; 4-maximally inflamed limb with involvement of multiple joints (maximum cumulative clinical arthritis score 16 per animal) (Nishida et al. 2004).

[1] = test system: IL-23 induced psoriatic-like epidermal hyperplasia; assay: Murine model of psoriatic-like epidermal hyperplasia induced by intradermal injections of IL-23; format: in vivo, mouse; conditions: 10 mg/kg p.o. b.i.d.
Description: Mouse recombinant IL-23, carrier free (Cat #14-8231) is provided by e-Bioscience (Frankfurt, Germany).
Balb/c mice (female, 18-20 g body weight) were obtained from Janvier Labs (Le Genest-Saint-Isle, France). Mice are kept on a 12 h light/dark cycle. Temperature was maintained at 22° C., food and water are provided ad libitum.
The design of the study was adapted from Rizzo H L. et al. (Rizzo et al. 2011). On the first day (D1), the mice were shaved around the two ears. For 4 consecutive days (D1 to D4), the mice received a daily intradermal dose of mouse recombinant IL-23 (1 μg/20 μL in PBS/0.1% BSA) in the right pinna ear and 20 μL of PBS/0.1% BSA in the left pinna ear under anesthesia.
From D1 to D5, mice were dosed with test-compound or with vehicle, 1 h prior IL-23 injection.
The thickness of both ears was measured daily with an automatic caliper. Body weight was assessed at initiation and at sacrifice. On fifth day, 2 h after the last dosing, the mice were sacrificed. The pinnae of the ear were cut, excluding cartilage. The pinnae, placed in a vial containing 1 mL of RNAlater® solution.
There were 8 mice per group. The results were expressed as mean±SEM and statistical analysis was performed using one-way ANOVA followed by Dunnett's post-hoc test versus IL-23 vehicle groups.

In the case of COc1cc(-c2cnc3cc(OCCN4CCOCC4)ccn23)cc2c1C(=O)N(CC(F)(F)F)CC2 [Cpd 88, 8-methoxy-6-[7-(2-morpholinoethoxy)imidazo [1,2-a]pyridin-3-yl]-2-(2,2,2-trifluoroethyl)-3,4-dihydroisoquinolin-1-one], the CIA clinical score (mouse CIA model; 10 mg/kg b.i.d. p.o., day 32) is reported as 2.7, the CIA clinical score (mouse CIA model; 10 mg/kg b.i.d. p.o., day 33) is reported as 3.1 and the CIA clinical score (mouse CIA model; 10 mg/kg b.i.d. p.o., day 35) is reported as 3.6. The CIA clinical score (mouse CIA model; 10 mg/kg b.i.d. p.o., day 36) was 4.1, the CIA clinical score (mouse CIA model; 10 mg/kg b.i.d. p.o., day 39) was 4.4 and the CIA clinical score (mouse CIA model; 10 mg/kg b.i.d. p.o., day 40) was 4.8. For the same compound, the CIA clinical score (mouse CIA model; 10 mg/kg b.i.d. p.o., day 41) was 4.5, the CIA clinical score (mouse CIA model; 10 mg/kg b.i.d. p.o., day 42) was 4.9 and the CIA clinical score (mouse CIA model; 10 mg/kg b.i.d. p.o., day 43) was 5.1. It also gave a CIA clinical score (mouse CIA model; 10 mg/kg b.i.d. p.o., day 46) of 8.0, a CIA clinical score (mouse CIA model; 10 mg/kg b.i.d. p.o., day 47) of 7.9 and a CIA clinical score (mouse CIA model; 30 mg/kg b.i.d. p.o., day 32) of 2.7. The CIA clinical score (mouse CIA model; 30 mg/kg b.i.d. p.o., day 33) was 2.7, the CIA clinical score (mouse CIA model; 30 mg/kg b.i.d. p.o., day 35) was 3.4 and the CIA clinical score (mouse CIA model; 30 mg/kg b.i.d. p.o., day 36) was 3.8. For the same compound, the CIA clinical score (mouse CIA model; 30 mg/kg b.i.d. p.o., day 39) was 4.5, the CIA clinical score (mouse CIA model; 30 mg/kg b.i.d. p.o., day 40) was 4.7 and the CIA clinical score (mouse CIA model; 30 mg/kg b.i.d. p.o., day 41) was 4.7. The CIA clinical score (mouse CIA model; 30 mg/kg b.i.d. p.o., day 42) was 5.2, the CIA clinical score (mouse CIA model; 30 mg/kg b.i.d. p.o., day 43) was 4.6 and the CIA clinical score (mouse CIA model; 30 mg/kg b.i.d. p.o., day 46) was 6.1. It also gave a CIA clinical score (mouse CIA model; 30 mg/kg b.i.d. p.o., day 47) of 5.4, a CIA clinical score (mouse CIA model; 60 mg/kg b.i.d. p.o., day 32) of 2.7 and a CIA clinical score (mouse CIA model; 60 mg/kg b.i.d. p.o., day 33) of 2.7. For the same compound, the CIA clinical score (mouse CIA model; 60 mg/kg b.i.d. p.o., day 35) was 3.1, the CIA clinical score (mouse CIA model; 60 mg/kg b.i.d. p.o., day 36) was 2.8 and the CIA clinical score (mouse CIA model; 60 mg/kg b.i.d. p.o., day 39) was 3.3. For the same compound, the CIA clinical score (mouse CIA model; 60 mg/kg b.i.d. p.o., day 40) was 3.0, the CIA clinical score (mouse CIA model; 60 mg/kg b.i.d. p.o., day 41) was 2.7 and the CIA clinical score (mouse CIA model; 60 mg/kg b.i.d. p.o., day 42) was 2.8. It also gave a CIA clinical score (mouse CIA model; 60 mg/kg b.i.d. p.o., day 43) of 2.3, a CIA clinical score (mouse CIA model; 60 mg/kg b.i.d. p.o., day 46) of 2.8 and a CIA clinical score (mouse CIA model; 60 mg/kg b.i.d. p.o., day 47) of 2.5. The “ear thickness compared to IL-23 vehicle group” value [1] was “statistically significant decrease of the ear thickness”.
